In patent publication US12083268B2, “Delivery device and formulation” (Ockham Biotech Limited, priority 2016, dated 2024):
“And” between values parts separate entries of the source, which are not always exact repeats. Identical values can stand only once.

Tests used:
[1] = Solubility of dexamethasone in NaCl solution with and without heparin; format: physicochemical
[2] = Physicochemical characterisation of heparin solutions in water
Description: Tests for viscosity, surface tension and osmolality were carried out in triplicate. For pH and density single measurements were performed.

[3] = Laser diffraction of aerosol from heparin solutions nebulised with PARI eFlow; format: physicochemical
Description: There is a moderate increase from 1.25±0.01 to 1.99±0.02 mPa·s between 6 and 30 mg/mL and a strong increase to 8.9±0.08 mPa·s when the concentration is further increased to 150 mg/mL. The surface tension (nearly equal to that of water) remains constant between 6 and 30 mg/mL and increases only slightly (from 72.41±0.02 to 73.78±0.05 mN/m) between 30 and 150 mg/mL. As expected the osmolality increases with increasing concentration, going from 0.014±0.001 to 0.293±0.001 osmol/kg over the investigated concentration range. […] All formulations show a pH (between 5.97 and 6.50) which would be appropriate for inhalation (the allowed range according to the European Pharmacopoeia is pH 3.0-8.5). The heparin solutions were nebulised using a PARI eFlow® device configured with Head class 40, which typically results in droplet sizes from 4.0-4.9 μm when using dilute aqueous formulations. The properties of the resultant aerosol particles were measured using laser diffraction, and are compared with the results obtained for isotonic saline measured using the same nebuliser configuration in Table 2.

[4] = Particle size distribution of heparin solutions aerosolised with Aeroneb Go (HELOS KR particle sizer); format: physicochemical
Description: The particle size distribution of heparin solutions was measured after aerosolisation of the heparin solutions using the Aeroneb® Go nebuliser. Particle size measurements were made using the HELOS KR particle sizer device, INHALER module, and WINDOX 5.0 software from SympatecGmbH (Clausthal-Zellerfeld, Germany). The total volume of solution in the reservoir of the nebuliser was 6 mL: 1.5 mL heparin (Wokhardt, 25,000 IU/mL) with 4.5 mL 0.9% aqueous NaCl (final concentration of heparin=6250 IU/mL or 31.25 mg/mL; final concentration of NaCl=[…]). The viscosity of the solution was 1.7 mPa·s. The nebulisation time was 14 min (reservoir empty); particle size measurements were divided into 1 min intervals. The particle distribution is seen to be bimodal. The X50 is […] (mean±standard deviation), where 50% of the total number of the particles is in particles less than this size. […] Optical concentration (droplets in laser pathway) was used as an indication of nebulisation efficiency; this nebulisation efficiency was determined to be 76.91%±4.25%.
(§1) Aqueous solutions of unfractionated heparin as its sodium salt containing various concentrations of an added inorganic salt were also aerosolised using the Aeroneb® Go. Particle size measurements were made using the HELOS KR particle sizer device, INHALER module, and WINDOX 5.0 software from SympatecGmbH (Clausthal-Zellerfeld, Germany). The heparin sodium salt was obtained from pig intestinal mucosa (Calbiochem, molecular weight 12-15 kDa, 192 U/mg). The particle size distributions are shown in FIGS. 2-7 and the important parameters, quoted as mean values ±standard deviations, are summarised in Table 4 below.
A 40 mg/mL aqueous solution of heparin containing 140 mM NaCl was aerosolised using the Aeroneb® Go nebuliser in the absence and presence of salbutamol (a bronchodilator) and dexamethasone (a corticosteroid). Particle size measurements were made using the HELOS KR particle sizer device, INHALER module, and WINDOX 5.0 software from SympatecGmbH (Clausthal-Zellerfeld, Germany).

[5] = Viscosity of heparin salt solutions (BS/U-tube viscometer); format: physicochemical; conditions: 40 mg/mL heparin
Description: as §1

[6] = HPLC of unfractionated heparin before and after nebulisation with PARI eFlow; format: physicochemical; conditions: 0.25 mg/mL (50 U/mL) in water
Description: A solution of unfractionated heparin (diluted to 50 U/mL, i.e. 0.25 mg/mL, in ultra high quality water) was analysed by high performance liquid chromatography. HPLC analysis was performed using a […] ion-paring C8 column (Hichrom, Reading, UK), a Rheodyne 7725 syringe loading sample injector fitted with a 20 μL loop (Rheodyne, Cotati, CA, USA), a LKB2150 dual piston pump (LK Bromma, Swedon), a HP 1050CVW detector (Agilent, UK), a HP 3396A integrator (Agilent, UK) and a Rheodyne 25 μL capacity syringe was used to load a 20 μL sample into the injection port. HPLC conditions consisted of an ultraviolet wavelength selected at 232 nm. The flow rate was adjusted to 0.50 mL/min and a pressure of 50 bar was recorded. A mobile phase composed of 30% acetonitrile and 70% aqueous solution comprising 15 mM tetrabutylammonium hydroxide and 50 mM ammonium acetate in HPLC grade water, adjusted to pH 7 with acetic acid, was used. The resulting HPLC trace is shown as the left-hand trace in FIG. 11.
An identical sample of unfractionated heparin was nebulised using the PARI eFlow® device, and recollected. […] The resulting HPLC trace is shown as the right-hand trace in FIG. 11.

[7] = Anti-coagulant activity after nebulisation from PARI eFlow
Description: In an additional experiment, it was also observed that the anti-coagulant activity of the unfractionated heparin was retained after nebulisation from the PARI eFlow® device.

[8] = Viscosity of heparin salt solutions (BS/U-tube viscometer); format: physicochemical
[9] = in water; reference [7]; cited from earlier work
[10] = 31.25 mg/mL heparin, 154 mM NaCl, Aeroneb Go
[11] = 40 mg/mL heparin, 112 mM NaCl, 56 mM MgCl2, Aeroneb Go
[12] = 40 mg/mL heparin, 140 mM NaCl, Aeroneb Go
[13] = 40 mg/mL heparin, 168 mM NaCl, Aeroneb Go
[14] = 40 mg/mL heparin, 196 mM NaCl, Aeroneb Go
[15] = 40 mg/mL heparin, 210 mM NaCl, Aeroneb Go
[16] = 40 mg/mL heparin, 224 mM NaCl, Aeroneb Go
[17] = 40 mg/mL unfractionated heparin, 140 mM NaCl, 0.75 mg/mL dexamethasone, Aeroneb Go
[18] = 40 mg/mL unfractionated heparin, 140 mM NaCl, 0.83 mg/mL salbutamol, Aeroneb Go
[19] = 40 mg/mL unfractionated heparin, 140 mM NaCl, no second agent, Aeroneb Go

C[C@@H]1C[C@H]2[C@@H]3CCC4=CC(=O)C=C[C@]4(C)[C@@]3(F)[C@@H](O)C[C@]2(C)[C@@]1(O)C(=O)CO [dexamethasone]
solubility (in words) ([1]; 0.25 mg/mL in 140 mM NaCl alone): not soluble | solubility (in words) ([1]; in 140 mM NaCl containing 40 mg/mL heparin): soluble

heparin
Viscosity ([2]; 6 mg/mL heparin in water): 1.25±0.01 mPa · s and 1.25 mPa · s | density ([2]; 6 mg/mL heparin in water): 1.00 g/mL | osmolality ([2]; 6 mg/mL heparin in water): 0.014±0.001 osmol/kg and 0.014 osmol/kg | pH ([2]; 6 mg/mL heparin in water): 6.50 | surface tension ([2]; 6 mg/mL heparin in water): 72.58 mN/m | Viscosity ([2]; 30 mg/mL heparin in water): 1.99±0.02 mPa · s and 1.99 mPa · s | density ([2]; 30 mg/mL heparin in water): 1.01 g/mL | osmolality ([2]; 30 mg/mL heparin in water): 0.056 osmol/kg | pH ([2]; 30 mg/mL heparin in water): 6.01 | surface tension ([2]; 30 mg/mL heparin in water): 72.41±0.02 mN/m and 72.41 mN/m | Viscosity ([2]; 150 mg/mL heparin in water): 8.9±0.08 mPa · s and 8.90 mPa · s | density ([2]; 150 mg/mL heparin in water): 1.07 g/mL | osmolality ([2]; 150 mg/mL heparin in water): 0.293±0.001 osmol/kg and 0.293 osmol/kg | pH ([2]; 150 mg/mL heparin in water): 5.97 | surface tension ([2]; 150 mg/mL heparin in water): 73.78±0.05 mN/m and 73.78 mN/m | MMD (median mass diameter) ([3]; 6 mg/mL heparin): 4.6 μm | RF (respirable fraction) [% <5 μm] ([3]; 6 mg/mL heparin): 57.9% | MMD (median mass diameter) ([3]; 30 mg/mL heparin): 4.4 μm | RF (respirable fraction) [% <5 μm] ([3]; 30 mg/mL heparin): 63.0% | X50 [4, 10]: 3.45 ± 0.025 µm | X90 [4, 10]: less than 8.5 m | particles within the respirable range of 1-5 μm [4, 10]: 57.87% | Particles in 1-5 μm range [4, 11]: 58.46% and 58.46 ± 0.30% | VMD (volume median diameter) [4, 11]: 4.31 ± 0.05 μm | X50 [4, 11]: 3.49 ± 0.056 μm | Particles in 1-5 μm range [4, 12]: 50.76% and 50.76 ± 0.63% | VMD (volume median diameter) [4, 12]: 4.80 ± 0.06 μm | X50 [4, 12]: 4.095 ± 0.044 μm | X50 ([4]; 40 mg/mL heparin, 140 mM NaCl, no second agent, Aeroneb Go (as restated in conclusions)): 3.98±0.03 μm | VMD ([4]; 40 mg/mL heparin, 140 mM NaCl, with salbutamol, Aeroneb Go (as restated in conclusions)): 4.47 μm | Particles in 1-5 μm range [4, 13]: 56.65% and 56.65 ± 0.47% | VMD (volume median diameter) [4, 13]: 4.41 ± 0.025 μm | X50 [4, 13]: 3.543 ± 0.049 μm | Particles in 1-5 μm range [4, 14]: 48.62% and 48.62 ± 0.38% | VMD (volume median diameter) [4, 14]: 4.68 ± 0.02 μm | X50 [4, 14]: 3.978 ± 0.022 μm | Particles in 1-5 μm range [4, 15]: 55% and 55 ± 0.24% | VMD (volume median diameter) [4, 15]: 4.55 ± 0.023 μm | X50 [4, 15]: 3.812 ± 0.027 μm | Particles in 1-5 μm range [4, 16]: 57.02% and 57.02 ± 0.28% | VMD (volume median diameter) [4, 16]: 4.37 ± 0.032 μm | X50 [4, 16]: 3.51 ± 0.03 μm | VMD [4, 17]: 4.61 ± 0.058 µm | X50 [4, 17]: 3.906±0.048 μm | particles within the respirable range of 1-5 m [4, 17]: 49.954% | VMD [4, 18]: 4.47 ± 0.054 µm | X50 [4, 18]: 3.546±0.045 μm | particles within the respirable range of 1-5 m [4, 18]: 55.154% | VMD [4, 19]: 4.64±0.033 μm | X50 [4, 19]: 3.98 ± 0.03 µm | particles within the respirable range of 1-5 μm [4, 19]: 48.21% | Viscosity ([5]; 0 mM NaCl, 0 mM MgCl2): 2.5 mPa · s | Viscosity ([5]; 112 mM NaCl, 56 mM MgCl2): 2 mPa · s and 2.0 mPa · s | Viscosity ([5]; 140 mM NaCl): 2.22 mPa · s | Viscosity ([5]; 168 mM NaCl): 2.25 mPa · s | Viscosity ([5]; 196 mM NaCl): 2.2 mPa · s | Viscosity ([5]; 210 mM NaCl): 2.2 mPa · s | Viscosity ([5]; 224 mM NaCl): 2 mPa · s and 2.0 mPa · s | structural integrity / degradation on nebulisation (HPLC traces before vs after) [6]: does not lead to degradation | anti-coagulant activity after nebulisation [7]: retained | Viscosity ([8]; 31.25 mg/mL (6250 IU/mL) heparin, 154 mM NaCl): 1.7 mPa·s | Viscosity ([8]; 40 mg/mL unfractionated heparin, 140 mM NaCl (Example 3)): 2.2 mPa·s | intrinsic viscosity [9]: 80.6 mL/g
